In ChEMBL document CHEMBL1201862, “PubChem BioAssay data set” (2004):
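Each compound was tested at five concentrations against cells in 96-well plates for 48 hours. Abbreviation: GI50, concentration required for 50% inhibition of growth.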 Active and inactive are the calls of the source. Rule as the data show it: active = GI50 up to about 1.1 µM and inactive = higher.

Columns and labels:
Experiment in all cases: NCI tumour cell line growth inhibition, 48 h
[1] = test system: KM12
[2] = test system: SNB-19
[3] = test system: SK-MEL-5
[4] = test system: SF-295
[5] = test system: HL-60
[6] = test system: KM-20L2
[7] = test system: M14
[8] = test system: CCRF-CEM
[9] = test system: TK-10
[10] = test system: IGROV-1
[11] = test system: LOX IMVI
[12] = test system: NCI-H460
[13] = test system: UACC-62
[14] = test system: NCI-H522
[15] = test system: HOP-92
[16] = test system: A498
[17] = test system: ACHN
[18] = test system: OVCAR-8
[19] = test system: HOP-62

Row | Structure (SMILES) | GI50 [1] | GI50 [2] | GI50 [3] | GI50 [4] | GI50 [5] | GI50 [6] | GI50 [7] | GI50 [8] | GI50 [9] | GI50 [10] | GI50 [11] | GI50 [12] | GI50 [13] | GI50 [14] | GI50 [15] | GI50 [16] | GI50 [17] | GI50 [18] | GI50 [19]
1 | COc1ccc2c(c1)C(O)(C(F)(F)F)c1cc(C(=O)C(F)(F)F)c3ccccc3c1N2 (stereo unspecified) | 4.35 µM (inactive) | 16 µM (inactive) | 13.7 µM (inactive) | 13.2 µM (inactive) | 14.7 µM (inactive) | 3.71 µM (inactive) | 5.33 µM (inactive) | 7.94 µM (inactive) | 13.5 µM (inactive) | 13.8 µM (inactive) | 4.99 µM (inactive) | 8.89 µM (inactive) | 4.46 µM (inactive) | 7.74 µM (inactive) | 16 µM (inactive) | 14.3 µM (inactive) | 5.47 µM (inactive) |  | 
2 | COC(=O)/C=C(\C(=O)OC)c1c2c3c(cc(OC)c(OC)c3c3ccccc13)CCN2C | 36.1 µM (inactive) | 35.5 µM (inactive) | 13.8 µM (inactive) | 78.9 µM (inactive) | 17.9 µM (inactive) | 12.6 µM (inactive) | 78.7 µM (inactive) | 24 µM (inactive) | 48.4 µM (inactive) | 26.8 µM (inactive) | 49.5 µM (inactive) | 35.9 µM (inactive) | 24.2 µM (inactive) | 23.1 µM (inactive) | 44.9 µM (inactive) |  | 40.6 µM (inactive) | 45.7 µM (inactive) | 25.1 µM (inactive)
3 | CCOC(=O)C12CCCC1(O)N(NC(=O)c1ccccc1)C(C)=C2C(=O)OC (stereo unspecified) | > 100 µM (inactive) | > 100 µM (inactive) |  | > 100 µM (inactive) | > 100 µM (inactive) | > 100 µM (inactive) | > 100 µM (inactive) | > 100 µM (inactive) | > 100 µM (inactive) | > 100 µM (inactive) | > 100 µM (inactive) | > 100 µM (inactive) | > 100 µM (inactive) | > 100 µM (inactive) | > 100 µM (inactive) | > 100 µM (inactive) | > 100 µM (inactive) | > 100 µM (inactive) | > 100 µM (inactive)
4 | CCCNC(=S)NNC(=O)CSc1nc(-c2ccccc2)c(-c2ccccc2)[nH]1 | 33 µM (inactive) | 88.1 µM (inactive) | 25.9 µM (inactive) | 54.6 µM (inactive) | 23.2 µM (inactive) | 84.1 µM (inactive) | 24.1 µM (inactive) | 38.1 µM (inactive) | 70.5 µM (inactive) | 65 µM (inactive) | 48.2 µM (inactive) | 39.9 µM (inactive) | > 100 µM (inactive) | 26.7 µM (inactive) | 23.5 µM (inactive) | 77.6 µM (inactive) | 46.7 µM (inactive) | 73.1 µM (inactive) | > 100 µM (inactive)
5 | CC(/C=C/C(=O)c1sc(C(N)=S)nc1C)=C\c1ccccc1 | > 100 µM (inactive) | 15.1 µM (inactive) | > 100 µM (inactive) | > 100 µM (inactive) | > 100 µM (inactive) | 80.2 µM (inactive) | > 100 µM (inactive) | 58.2 µM (inactive) | > 100 µM (inactive) | > 100 µM (inactive) | 18.2 µM (inactive) | 35.4 µM (inactive) | > 100 µM (inactive) | 81.8 µM (inactive) | > 100 µM (inactive) | > 100 µM (inactive) | 81.8 µM (inactive) | > 100 µM (inactive) | > 100 µM (inactive)
6 | COc1ccc2[nH]c3c(cnn4cnnc34)c2c1 | > 100 µM (inactive) | > 100 µM (inactive) | 0.262 µM (active) | > 100 µM (inactive) | > 100 µM (inactive) | > 100 µM (inactive) | > 100 µM (inactive) | > 100 µM (inactive) | > 100 µM (inactive) | > 100 µM (inactive) | > 100 µM (inactive) | > 100 µM (inactive) | > 100 µM (inactive) | > 100 µM (inactive) | > 100 µM (inactive) |  | > 100 µM (inactive) | > 100 µM (inactive) | > 100 µM (inactive)
7 | COc1cc2[nH]c3c(c2cc1OC)CCN[C@]31CC[C@]2(CC3c4c(cc(OC)c(O)c42)CCN3C)C[C@H]1OC (stereo partly specified) | 17.7 µM (inactive) | 34.8 µM (inactive) | 15 µM (inactive) | 20.5 µM (inactive) | 11.6 µM (inactive) | 28.1 µM (inactive) | 15.7 µM (inactive) | 10.8 µM (inactive) | 21.6 µM (inactive) | 22.5 µM (inactive) | 24.3 µM (inactive) | 23.8 µM (inactive) | 25 µM (inactive) |  | 25.8 µM (inactive) | 24.8 µM (inactive) | 24.8 µM (inactive) | 19.6 µM (inactive) | 21.8 µM (inactive)
8 | NC(=O)NNC(=O)NC12CC3CC(CC(C3)C1)C2 | > 100 µM (inactive) | > 100 µM (inactive) | > 100 µM (inactive) | > 100 µM (inactive) | > 100 µM (inactive) | > 100 µM (inactive) | > 100 µM (inactive) | > 100 µM (inactive) | > 100 µM (inactive) | > 100 µM (inactive) | > 100 µM (inactive) | > 100 µM (inactive) | > 100 µM (inactive) | > 100 µM (inactive) | > 100 µM (inactive) | > 100 µM (inactive) | > 100 µM (inactive) | > 100 µM (inactive) | > 100 µM (inactive)
9 | COc1ccc(/C=C/c2cc(OC)cc(OC)c2)cc1 [TRISMETHOXYRESVERATROL] | 4.17 µM (inactive) | 20.7 µM (inactive) | 4.23 µM (inactive) | 4.38 µM (inactive) | 2.56 µM (inactive) | 3.15 µM (inactive) | 6.53 µM (inactive) | 3.97 µM (inactive) | 12.6 µM (inactive) | 6.44 µM (inactive) | 6.7 µM (inactive) | 3.73 µM (inactive) | 3.56 µM (inactive) | 2.68 µM (inactive) | 8.07 µM (inactive) | 6.18 µM (inactive) | 7.08 µM (inactive) | 22.1 µM (inactive) | 4.92 µM (inactive)
10 | COc1nc(NC2OC(COC(C)=O)C(OC(C)=O)C(OC(C)=O)C2OC(C)=O)c2c(OC(C)=O)c(C)c(=O)oc2n1 (stereo unspecified) | > 100 µM (inactive) | > 100 µM (inactive) | > 100 µM (inactive) | > 100 µM (inactive) | > 100 µM (inactive) | > 100 µM (inactive) | > 100 µM (inactive) | > 100 µM (inactive) | > 100 µM (inactive) | > 100 µM (inactive) | > 100 µM (inactive) | 1.67 µM (inactive) | > 100 µM (inactive) |  | > 100 µM (inactive) | 1.75 µM (inactive) | 1.7 µM (inactive) | > 100 µM (inactive) | > 100 µM (inactive)
11 | COC1CC(OC)C(O)C(CO)O1 (stereo unspecified) | > 100 µM (inactive) |  | > 100 µM (inactive) | > 100 µM (inactive) | > 100 µM (inactive) | > 100 µM (inactive) | > 100 µM (inactive) | > 100 µM (inactive) | > 100 µM (inactive) | > 100 µM (inactive) | > 100 µM (inactive) | > 100 µM (inactive) | > 100 µM (inactive) | > 100 µM (inactive) |  |  | > 100 µM (inactive) | > 100 µM (inactive) | > 100 µM (inactive)
12 | CN(C)c1ccc(/C=c2\sc3nnc(-c4ccco4)n3c2=O)cc1 | > 100 µM (inactive) | > 100 µM (inactive) | > 100 µM (inactive) | > 100 µM (inactive) | > 100 µM (inactive) | > 100 µM (inactive) | > 100 µM (inactive) | > 100 µM (inactive) | > 100 µM (inactive) | > 100 µM (inactive) | > 100 µM (inactive) | > 100 µM (inactive) | > 100 µM (inactive) | > 100 µM (inactive) | > 100 µM (inactive) | > 100 µM (inactive) |  | > 100 µM (inactive) | > 100 µM (inactive)
13 | O=C1Cc2c([nH]c3ccccc23)-c2cc(Br)ccc2N1 | > 100 µM (inactive) | > 100 µM (inactive) | > 100 µM (inactive) | > 100 µM (inactive) | > 100 µM (inactive) | > 100 µM (inactive) | > 100 µM (inactive) | > 100 µM (inactive) | > 100 µM (inactive) | > 100 µM (inactive) | > 100 µM (inactive) | > 100 µM (inactive) |  | > 100 µM (inactive) | > 100 µM (inactive) | > 100 µM (inactive) | > 100 µM (inactive) | > 100 µM (inactive) | > 100 µM (inactive)
14 | Nc1nc(NCCO)c(N=O)c(=O)[nH]1 | > 100 µM (inactive) |  | > 100 µM (inactive) | > 100 µM (inactive) | > 100 µM (inactive) | > 100 µM (inactive) | > 100 µM (inactive) | > 100 µM (inactive) | > 100 µM (inactive) | > 100 µM (inactive) | > 100 µM (inactive) | > 100 µM (inactive) | > 100 µM (inactive) | > 100 µM (inactive) | > 100 µM (inactive) | > 100 µM (inactive) | > 100 µM (inactive) | > 100 µM (inactive) | > 100 µM (inactive)
15 | COC(=O)C(=O)C(C(=O)C=C(C)C)C(=O)C(=O)Nc1ccc(C)cc1C (stereo unspecified) | > 100 µM (inactive) | > 100 µM (inactive) | > 100 µM (inactive) | > 100 µM (inactive) | > 100 µM (inactive) | > 100 µM (inactive) | > 100 µM (inactive) | > 100 µM (inactive) | > 100 µM (inactive) | > 100 µM (inactive) | > 100 µM (inactive) | > 100 µM (inactive) | > 100 µM (inactive) | > 100 µM (inactive) |  | > 100 µM (inactive) | > 100 µM (inactive) | > 100 µM (inactive) | > 100 µM (inactive)
